In patent publication US12679866B2, “Peptide, and cell fusion agent and pharmaceutical composition for cancer therapy containing said peptide” (priority 2019, dated 2026):
No end group written: not given here.

Experiments:
[1] = tested on: RFL cells (rat lung fetal cells); test: Cell fusion activity in RFL cells; format: cell-based; settings: peptide 1 μg/mL, cultured 24-36 hours, nuclear staining
Method: (§1) In this Example, the peptide 1 obtained in Example 1 was added to RFL cells (rat lung fetal cells) or LLC cells (Lewis lung carcinoma-derived cells), and the cell fusion activity of the peptide was examined.
(§2) RFL cells or LLC cells (2×10^6 cells) were suspended in 6 mL of RPMI-1640 medium (Wako, 189-02025) supplemented with 5% FBS (Biosera, Cat No. 015BS493) and 8×10^4 cells/0.25 mL were dispensed to each well of 24 well plate (Iwaki, 2820-024)), and cultured. The medium was removed, and a fresh medium (20 μL) and peptide 1 (1 μg/mL) were dispensed, and the cells were further cultured for 24-36 hours. After the culture was completed, the cells were fixed with methanol (Wako), and nuclear-stained with Gimza staining solution (Muto Kagaku 15003) for microscopic examination.

[2] = tested on: RFL cells (rat lung fetal cells); test: Cell fusion activity in RFL cells; format: cell-based; settings: peptide 9 vs peptide 1, peptide 1 vs peptide 10
[3] = tested on: LLC cells (Lewis lung carcinoma-derived cells); test: Cell fusion activity in LLC cells; format: cell-based; settings: LLC (printed LCC) cells, peptide 1 μg/mL, cultured 24-36 hours, nuclear staining
Method: as §1, §2

RM-4 cells [4] = test: Cell fusion activity in RM-4 cells; format: cell-based, rat; settings: peptide 1 μg/mL, cultured 24-36 hours, nuclear staining
Method: as §2
In this Example, the cell fusion activity of the peptide 6 was examined. The procedure of Example 2 was repeated, except that the peptide 6 was used instead of the peptide 1, and the RM-4 cells only used instead of the LCC cells. In connection with this, RM-4 cells are cancer cells in which RFL cells were infected with Moloney murine leukemia virus and selected.

[5] = tested on: A549 cells (human alveolar epithelial adenocarcinoma cells); test: Anticancer effect on A549 cells transplanted into nude mice; format: in vivo; settings: 25 mg/kg intravenous
Method: In this example, the anticancer effect of peptide 6 on A549 cells (human alveolar epithelial adenocarcinoma cells) was examined in vivo.
CAnN.Cg-Foxn1nu/CrlCrlj nude mice were divided into groups of 6 animals each. A549 cells suspended in PBS at a concentration of 4×10^6 cells/mL were transplanted subcutaneously to the right ventral part thereof. The peptide 6 was administered intravenously from the tail vein at a dose of 25 mg/kg (peptide 6 group) on 14, 17, 21, 24, 28, 31, 35, and 38 days later after tumor transplantation. Control group was administered PBS only.
Tumor volume and body weight were measured every 3 or 4 days, and the tumor was resected on 38 days after tumor transplantation (on […] after the start of peptide administration). The tumor volume was calculated from the formula “estimated tumor volume=(minor axis)^2×(major axis)÷2” by measuring the minor axis and major axis with a caliper. […] 5 mice were evaluated.

RM-4 cells [6] = test: Apoptosis induction in RM-4 cells (Caspase-3/7 and Annexin V, IncuCyte S3); format: cell-based, rat; settings: 0.06 μg/mL peptide
Method: In this Example, the apoptosis ability of peptide 1 was examined using the RM-4 cells. An activity of Caspase-3/7 and an activity of AnnexinV (red fluorescence) which are indications of apoptosis, was measured using IncuCyte S3 live cell analysis system (Essen BioScience).
The activity of Caspase-3/7 activity is measured using an inert non-fluorescent (DEVD) substrate that can penetrate the cell membrane. An activated Caspase-3/7 cleaves the substrate, and thereby a DNA-bound green fluorescent label is released. The activity of Caspase-3/7 is measured by the intensity of green fluorescence.
The activity of Annexin V is measured using a photostable CF dye. CF dye emits a red fluorescent signal when bound to phosphatidylserine (PS). The activity of Annexin V is measured by the red fluorescent signal.
RM-4 cells were seeded on 96-well plates and 0.06 μg/mL of peptide 1 was added thereto. Caspase-3/7 Green Reagent (Unit size: 20 ul, 5 mM/vial) was diluted 500-fold with Ham's F-12K and added thereto. Then, Annexin V Red Reagent (Unit size: 100 tests/vial) was diluted 100-fold with Ham's F-12K and added thereto. They were measured using the IncuCyte S3 live cell analysis system, by continuously scanning every hour for 3 days with an objective lens of magnification of 10 times and 4 fields of view. As a control, RM-4 cells which were not treated with peptide 1, were used.

Substance | cell fusion activity (fusion cells with multiple nuclei, microscopy) [1] | also measured
CH3-Pro-Leu-Val-Ser-Gln-Thr-Thr-Ala-Leu-Ala (Me-PLVSQTTALA) [peptide 4] | cells are fused and fusion cells with multiple nuclei were found | 
CH3-Pro-Ile-Val-Ser-Thr-Gln-Thr-Ala-Ile-Ala (Me-PIVSTQTAIA) [peptide 5] | cells are fused and fusion cells with multiple nuclei were found | 
CH3-Pro-Leu-Val-Ser-Thr-Gln-Thr-Ala-Ile-Ala-Thr-Ala (Me-PLVSTQTAIATA) [peptide 9] | cells are fused and fusion cells with multiple nuclei were found | cell fusion activity compared with another peptide [2]: superior to peptide 1
CH3-Pro-Leu-Val-Ser-Thr-Gln-Thr-Ala-Leu-Ala (Me-PLVSTQTALA) [peptide 2] | cells are fused and fusion cells with multiple nuclei were found | 
CH3-Pro-Ile-Val-Ser-Gln-Thr-Thr-Ala-Leu-Ala (Me-PIVSQTTALA) [peptide 8] | cells are fused and fusion cells with multiple nuclei were found | cell fusion activity (fusion cells with multiple nuclei, microscopy) [3]: cells are fused and fusion cells with multiple nuclei were found
CH3-Pro-Leu-Val-Ser-Gln-Thr-Thr-Ala-Ile-Ala (Me-PLVSQTTAIA) [peptide 3] | cells are fused and fusion cells with multiple nuclei were found | 
CH3-Pro-Ile-Val-Ser-Thr-Gln-Thr-Ala-Leu-Ala (Me-PIVSTQTALA) [peptide 6] | cells are fused and fusion cells with multiple nuclei were found | cell fusion activity (fusion cells with multiple nuclei, microscopy) (RM-4 cells [4]): cells are fused and fusion cells with multiple nuclei were found; tumor volume ([5]; A549 subcutaneous in nude mice, 8 administrations, 28 days): tumor volumes were reduced; histology of HE-stained excised tumor ([5]; A549 tumor resected 38 days after transplantation): the inside of the tumor was necrotic
CH3-Pro-Ile-Val-Ser-Gln-Thr-Thr-Ala-Ile-Ala (Me-PIVSQTTAIA) [peptide 7] | cells are fused and fusion cells with multiple nuclei were found | 
PLVSTQTAIA [peptide 10] | cells are fused and fusion cells with multiple nuclei were found | 
CH3-Pro-Leu-Val-Ser-Thr-Gln-Thr-Ala-Ile-Ala (Me-PLVSTQTAIA) [peptide 1] | cells are fused and fusion cells with multiple nuclei were found | apoptosis induction (fluorescence micrographs) (RM-4 cells [6]; after 18 and 78 hours): induced apoptosis in RM-4 cells; activity of Annexin V (red fluorescence) (RM-4 cells [6]; scanned every hour for 3 days): increased sharply between 10 and 20 hours, and then gradually increased; activity of Caspase-3/7 (green fluorescence) (RM-4 cells [6]; scanned every hour for 3 days): increased sharply between 10 and 20 hours, and then gradually increased; cell fusion activity compared with another peptide [2]: seemed to be stronger; cell fusion activity (fusion cells with multiple nuclei, microscopy) [3]: cells are fused and fusion cells with multiple nuclei were found
